The target in assay [1] is T1, JAK3 enzyme (Homo sapiens (Human), UniProt P52333). The assay is described as follows: JAK Caliper enzyme assay at 4 μM ATP. Type of assay: biochemical. The procedure:
(§1) JAK Caliper Enzyme Assay at 4 μM or 1 mM ATP
(§2) Test article was solubilized in dimethyl sulfoxide (DMSO) to a stock concentration of 30 mM. An 11-point half log dilution series was created in DMSO with a top concentration of 600 μM. […] The compound plates were diluted 1 to 60 resulting in a top final assay compound concentration of 10 μM and a 2% DMSO concentration.
(§3) Test article and assay controls were added to a 384-well plate. Reaction mixtures contained 20 mM HEPES, pH 7.4, 10 mM magnesium chloride, 0.01% bovine serum albumin (BSA), 0.0005% Tween 20, 4 μM or 1 mM ATP and 1 μM peptide substrate. […] The assays were initiated by the addition 1 nM JAK3 enzyme and were incubated at room temperature 75 minutes for JAK3. Enzyme concentrations and incubation times were optimized for each new enzyme preps and were modified slightly over time to ensure 20%-30% phosphorylation. The assays were stopped with a final concentration of 10 mM EDTA, 0.1% Coating Reagent and 100 mM HEPES, pH=7.4. The assay plates were placed on a Caliper Life Science Lab Chip 3000 (LC3000) instrument, and each well was sampled using appropriate separation conditions to measure the unphosphorylated and phosphorylated peptide.

Assay [2] concerns the target T1, JAK3 enzyme. Briefly: JAK Caliper enzyme assay at 1 mM ATP. The assay is classed as biochemical. Here is the method: as §1, §2, §3
Assay [3] relates to IL-15 induced P-STAT5 in human PBMC. The assay is described as follows: PBMC IL-15 induced P-STAT5. Type of assay: cell-based. The following applies: IL-15 stimulated, read-out: PBMC IL15-STAT5 IC50. Here is the method:
PBMC IL-15 Induced P-STAT5
Frozen human PBMC (200-250 million cells/vial) was thawed at 37° C. The cells were transferred to 10 mL warm medium in a 50-mL conical tube, and centrifuged at 1,200 RPM at room temperature for 5 min. The supernatant was aspirated. […] After adding 47 ml D-PBS (37° C.) to PBMC/FBS suspension, centrifuging at 1,200 RPM at room temperature for 5 min, and aspirating the supernatant, the cells were resuspended in 20 mL warm RPMI medium. Ninety μL of cell suspension were pipetted per well in a 96-well, deep-well, V-bottom plate, and the plate was incubated at 37° C. for 30 min. […] After adding 0.8 mL staining buffer per well, the plates were centrifuged at 1,200 RPM (Beckman GS-6R or Sorvall Legend) at room temperature for 5 min, and again the supernatant was aspirated using a 8-channel or 12-channel manifold. The plate was vortexed, and 0.35 mL 90% methanol/10% H2O (−20° C.) was added per well, and the plate incubated on ice for 20 min. After again adding 0.8 mL staining buffer per well, the plates were centrifuged at 1,200 RPM (Beckman GS-6R or Sorvall Legend) at room temperature for 5 min, and again the supernatant was aspirated using a 8-channel or 12-channel manifold, and then 0.8 mL Staining buffer was added per well. […] Samples were analyzed using a BD Calibur™ or BD FACSCanto™ flow cytometer equipped with the BD High Throughput Sampler.

Assay [4] relates to IL-15 induced STAT5 phosphorylation in human whole blood lymphocytes. Briefly: HWB IL-15 induced STAT5 phosphorylation assay. The assay is classed as cell-based. The conditions noted are these: Lymphocyte, IL-15 stimulated, read-out: HWB-IL15-pSTAT5 IC50. The procedure:
HWB IL-15 Induced STAT5 Phosphorylation Assay
After mixing and incubating for 45 minutes at 37° C., 5 μl D-PBS (unstimulated control) or 20× stocks of 5 μl human IL-15 (final concentration is 50 ng/ml) were added, and mixed three times. After incubating 15 minutes at 37° C., 1× Lyse/Fix Buffer (BD Phosflow 5× Lyse/Fix Buffer) was added to all wells at 1000 μl/well, then incubated for 20 minutes at 37° C. and spun 5 mins at 1200 rpm. […] Following incubating at 4° C. over night, all the samples were transferred to 96-well polypropylene U-bottom plate, and checked by flow cytometry gated on total lymphocytes.

T1 sequence (P52333 whole entry, species assumed): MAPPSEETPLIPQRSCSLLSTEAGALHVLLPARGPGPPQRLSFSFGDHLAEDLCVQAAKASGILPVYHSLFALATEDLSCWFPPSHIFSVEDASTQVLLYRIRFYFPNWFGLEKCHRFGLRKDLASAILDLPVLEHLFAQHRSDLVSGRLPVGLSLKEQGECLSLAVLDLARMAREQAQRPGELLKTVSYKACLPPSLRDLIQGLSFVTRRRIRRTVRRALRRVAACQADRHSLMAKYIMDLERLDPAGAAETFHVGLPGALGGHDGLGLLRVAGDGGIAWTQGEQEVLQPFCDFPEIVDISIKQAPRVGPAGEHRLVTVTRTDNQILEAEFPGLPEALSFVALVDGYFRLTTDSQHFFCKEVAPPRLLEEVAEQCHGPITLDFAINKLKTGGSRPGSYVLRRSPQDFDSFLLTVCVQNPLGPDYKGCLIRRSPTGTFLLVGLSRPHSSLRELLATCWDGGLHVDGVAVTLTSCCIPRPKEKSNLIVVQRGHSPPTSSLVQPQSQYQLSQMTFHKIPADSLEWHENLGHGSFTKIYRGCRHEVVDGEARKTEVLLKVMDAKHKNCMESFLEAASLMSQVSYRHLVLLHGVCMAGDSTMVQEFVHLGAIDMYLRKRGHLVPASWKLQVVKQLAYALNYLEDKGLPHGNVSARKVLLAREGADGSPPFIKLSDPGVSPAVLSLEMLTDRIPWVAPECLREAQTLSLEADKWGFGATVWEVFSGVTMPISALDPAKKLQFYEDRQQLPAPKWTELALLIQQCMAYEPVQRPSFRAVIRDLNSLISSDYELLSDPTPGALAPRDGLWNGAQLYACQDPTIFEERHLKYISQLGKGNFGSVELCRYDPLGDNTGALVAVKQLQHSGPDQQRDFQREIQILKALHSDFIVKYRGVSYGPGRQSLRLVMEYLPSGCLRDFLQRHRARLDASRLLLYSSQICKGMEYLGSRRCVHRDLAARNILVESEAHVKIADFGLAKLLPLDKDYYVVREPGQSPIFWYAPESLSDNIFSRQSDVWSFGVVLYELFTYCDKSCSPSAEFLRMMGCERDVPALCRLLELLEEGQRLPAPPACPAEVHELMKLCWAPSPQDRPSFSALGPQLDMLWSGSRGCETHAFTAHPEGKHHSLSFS

For orientation: IC50 means the midpoint of a concentration-inhibition curve. Consider `C=CC(=O)N1C[C@H](Nc2ncnc3[nH]ccc23)[C@H]2CC[C@@H]1C2` (racemic) [Example 116, Rac-1-((1R,4R,5S)-4-(7H-pyrrolo[2,3-d]pyrimidin-4-ylamino)-2-azabicyclo[3.2.1]octan-2-yl)prop-2-en-1-one], for which the IC50 on JAK3 enzyme [1] is 0.418 µM; at JAK3 enzyme [2], more than 10 µM; in assay [3] it was more than 10 µM; in assay [4] it was more than 10 µM.

The values above are taken from US9617258B2, “Pyrrolo[2,3-d]pyrimidinyl, pyrrolo[2,3-b]pyrazinyl and pyrrolo[2,3-d]pyridinyl acrylamides” (Pfizer Inc., priority 2013, dated 2017).
